Data set [1] in a line: Saturation solubility of compound in PEG400/transcutol/benzyl alcohol/water mixture using crystalline form of sample. The data set is classed as physicochemical.
For data set [2], the target named is T1, Eukaryotic translation initiation factor 2-alpha kinase 3 (Homo sapiens, UniProt Q9NZJ5).
T1 sequence (Q9NZJ5 whole entry): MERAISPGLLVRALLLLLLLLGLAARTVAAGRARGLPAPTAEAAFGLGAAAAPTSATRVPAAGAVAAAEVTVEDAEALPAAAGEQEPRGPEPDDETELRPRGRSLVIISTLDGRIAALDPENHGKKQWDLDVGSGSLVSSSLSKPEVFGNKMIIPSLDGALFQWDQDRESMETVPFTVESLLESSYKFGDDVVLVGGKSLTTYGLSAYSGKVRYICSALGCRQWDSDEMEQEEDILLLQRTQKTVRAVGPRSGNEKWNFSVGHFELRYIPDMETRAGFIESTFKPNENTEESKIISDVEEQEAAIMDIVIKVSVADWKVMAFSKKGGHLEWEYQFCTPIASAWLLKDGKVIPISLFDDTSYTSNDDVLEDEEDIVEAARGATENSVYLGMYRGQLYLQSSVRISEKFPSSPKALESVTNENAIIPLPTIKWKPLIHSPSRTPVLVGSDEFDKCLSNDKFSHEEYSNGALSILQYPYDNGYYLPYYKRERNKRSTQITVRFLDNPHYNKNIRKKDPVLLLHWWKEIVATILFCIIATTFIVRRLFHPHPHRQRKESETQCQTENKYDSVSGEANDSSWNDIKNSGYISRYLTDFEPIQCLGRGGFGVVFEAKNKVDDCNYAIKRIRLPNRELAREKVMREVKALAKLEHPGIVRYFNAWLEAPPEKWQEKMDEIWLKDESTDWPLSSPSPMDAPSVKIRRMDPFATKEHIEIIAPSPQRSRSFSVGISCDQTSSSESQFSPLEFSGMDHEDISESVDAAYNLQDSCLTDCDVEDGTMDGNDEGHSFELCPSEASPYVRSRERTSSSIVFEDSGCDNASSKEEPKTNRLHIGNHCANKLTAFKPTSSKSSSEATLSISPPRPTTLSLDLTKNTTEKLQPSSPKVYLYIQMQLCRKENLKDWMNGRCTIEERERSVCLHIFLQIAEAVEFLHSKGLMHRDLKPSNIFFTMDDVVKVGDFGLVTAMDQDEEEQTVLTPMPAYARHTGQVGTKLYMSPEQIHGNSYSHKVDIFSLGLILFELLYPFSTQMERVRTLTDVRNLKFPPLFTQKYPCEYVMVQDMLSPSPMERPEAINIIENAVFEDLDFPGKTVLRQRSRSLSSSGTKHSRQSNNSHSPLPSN
Briefly: Inhibition of EIF2AK3 (unknown origin).

Data set [3] in a line: Stability of compound in fresh human skin explant using Franz diffusion cell model assessed as compound concentration in dermis at 3 % administered topically preincubated overnight followed by fresh media replacement in receiver fluid without compound and subsequently stimulated with IL-4/IL-13 measured after 40 hrs by LC-MS/MS analysis. The data set is classed as ADME, tissue-based, Skin of body. Conditions: topical or ocular, read-out: Ct.

Data set [4] can be described thus: Stability in dermis human abdominal skin upto 2.5 % administered topically as ointment treated for 24 hrs followed by removal of ointment and stratum corneum and subsequently stimulated with IL-4/IL-13 measured after 3 hrs. The class given is ADME, tissue-based, Abdomen skin. To be noted: topical_or_ocular, 27 h, route top.
The nature of data set [5]: Stability in human whole blood assessed as half life at 1 uM incubated upto 8 hrs by LC-MS/MS analysis. The class given is ADME, tissue-based.
In data set [6] the target is T2, JAK3/JAK1 (Homo sapiens, UniProt P23458+P52333). The experiment in a line: Inhibition of JAK1/3-mediated STAT5 phosphorylation in human whole blood incubated for 30 mins followed by IL-2 addition measured after 15 mins by flow cytometry. The class given is tissue-based. (Flow cytometry measures light scatter and fluorescence of single cells or particles in a stream.)

Data set [7] is described as follows: Metabolic stability in human skin S9 fraction measured upto 120 mins by LC-MS analysis. The data set is classed as ADME, subcellular.
Data set [8] is described as follows: Permeability of compound. The class given is ADME. To be noted: not told; read-out: permeability.
Data set [9] deals with Tyrosine-protein kinase JAK1 (Homo sapiens, UniProt P23458). Briefly: Inhibition of GST-fused JAK1 (866 to 1154 residues)(unknown origin) using FITC-Ahr-KKSRGDYMTMQIG-NH2 peptide as substrate incubated for 30 mins in presence of ATP by caliper microfluidic mobility shift assay.
For data set [10], the target named is JAK2/JAK1 (Homo sapiens, UniProt O60674+P23458). The experiment in a line: Inhibition of JAK1/2-mediated STAT1 phosphorylation in human M07E cells preincubated for 30 mins followed by IFN-alpha stimulation measured after 15 mins by flow cytometry. The class given is cell-based.
Data set [11] is described as follows: Stability of compound under light stress assessed as compound decomposition under sunlight with intensity of 4000 KJ/m2, irradiation of 250 W/m2, wavelength of >290 nm, temperature of 37 degreeC for 4 hrs using crystalline form of sample. The data set is classed as ADME. To be noted: read-out: Drug degradation.
Data set [12] is described as follows: Drug penetration in fresh human skin explant using Franz diffusion cell model assessed as concentration of 2-(6-((5-carbamoyl-4-((2-methoxyphenyl)amino)pyridin-2-yl)amino)pyridin-3-yl)acetic acid metabolite in receiver fluid at 3 % administered topically preincubated overnight followed by fresh media replacement in receiver fluid without compound and subsequently stimulated with IL-4/IL-13 measured after 24 hrs by LC-MS/MS analysis. The class given is ADME, tissue-based, Skin of body. Conditions: topical_or_ocular.

A short description of data set [13]: Thermodynamic solubility of the compound at pH 6.8 using crystalline form of sample. The data set is classed as physicochemical.
Data set [14] can be described thus: Drug metabolism in rat assessed as excretion of 2-(6-((5-carbamoyl-4-((2-methoxyphenyl)amino)pyridin-2-yl)amino)pyridin-3-yl)acetic acid metabolite by measuring half life. The class given is ADME.
For data set [15], the target named is T2, JAK3/JAK1. Briefly: Inhibition of JAK1/3-mediated STAT5 phosphorylation in human M07E cells preincubated for 30 mins followed by IL-15 stimulation measured after 15 mins by flow cytometry. The class given is cell-based.
The target of data set [16] is Tyrosine-protein kinase JAK2 (Homo sapiens, UniProt O60674). The experiment in a line: Inhibition of GST-fused JAK2 (808 to 1132 residues)(unknown origin) using Carboxyfluorescein-Ahx-GGEEEEYFELVKKKK peptide as substrate incubated for 30 mins in presence of ATP by caliper microfluidic mobility shift assay.
Data set [17] can be described thus: Stability of compound under temperature stress assessed as compound degradation at 50 degreeC measured after 7 days using crystalline form of sample. The data set is classed as physicochemical. To be noted: time 7 day; read-out: Drug degradation.
Data set [18] is described as follows: Lipophilicity, LogD of compound. The data set is classed as physicochemical. To be noted: octanol/water.

T2 sequence (P52333 whole entry): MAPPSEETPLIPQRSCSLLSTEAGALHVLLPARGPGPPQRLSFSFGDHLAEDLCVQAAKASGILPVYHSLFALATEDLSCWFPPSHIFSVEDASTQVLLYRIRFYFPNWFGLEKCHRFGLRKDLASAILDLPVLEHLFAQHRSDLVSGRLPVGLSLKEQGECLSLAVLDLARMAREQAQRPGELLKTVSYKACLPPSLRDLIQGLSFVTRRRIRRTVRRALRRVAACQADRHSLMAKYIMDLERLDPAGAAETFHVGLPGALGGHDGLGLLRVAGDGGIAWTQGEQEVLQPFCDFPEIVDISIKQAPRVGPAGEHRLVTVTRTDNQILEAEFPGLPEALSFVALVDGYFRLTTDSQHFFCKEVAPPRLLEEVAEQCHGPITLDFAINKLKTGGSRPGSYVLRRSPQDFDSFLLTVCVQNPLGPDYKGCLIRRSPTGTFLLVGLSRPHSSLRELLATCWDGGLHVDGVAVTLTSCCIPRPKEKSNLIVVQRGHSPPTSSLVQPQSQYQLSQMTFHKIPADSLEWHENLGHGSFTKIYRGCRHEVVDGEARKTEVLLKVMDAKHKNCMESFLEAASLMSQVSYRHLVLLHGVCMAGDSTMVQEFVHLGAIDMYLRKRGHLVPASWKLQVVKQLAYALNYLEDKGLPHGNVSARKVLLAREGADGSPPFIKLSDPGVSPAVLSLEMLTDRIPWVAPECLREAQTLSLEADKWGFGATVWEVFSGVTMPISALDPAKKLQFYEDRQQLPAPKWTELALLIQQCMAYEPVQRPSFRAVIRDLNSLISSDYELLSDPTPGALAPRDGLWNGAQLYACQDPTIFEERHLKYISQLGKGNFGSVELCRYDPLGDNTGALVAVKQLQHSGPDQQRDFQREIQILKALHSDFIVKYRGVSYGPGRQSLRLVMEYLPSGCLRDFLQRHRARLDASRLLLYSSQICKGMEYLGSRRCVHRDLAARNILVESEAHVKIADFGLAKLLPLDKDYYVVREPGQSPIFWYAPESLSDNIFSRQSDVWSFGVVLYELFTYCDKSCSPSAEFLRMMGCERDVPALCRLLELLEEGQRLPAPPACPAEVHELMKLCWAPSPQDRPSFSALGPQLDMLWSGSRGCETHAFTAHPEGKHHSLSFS
T2 sequence (P23458 whole entry): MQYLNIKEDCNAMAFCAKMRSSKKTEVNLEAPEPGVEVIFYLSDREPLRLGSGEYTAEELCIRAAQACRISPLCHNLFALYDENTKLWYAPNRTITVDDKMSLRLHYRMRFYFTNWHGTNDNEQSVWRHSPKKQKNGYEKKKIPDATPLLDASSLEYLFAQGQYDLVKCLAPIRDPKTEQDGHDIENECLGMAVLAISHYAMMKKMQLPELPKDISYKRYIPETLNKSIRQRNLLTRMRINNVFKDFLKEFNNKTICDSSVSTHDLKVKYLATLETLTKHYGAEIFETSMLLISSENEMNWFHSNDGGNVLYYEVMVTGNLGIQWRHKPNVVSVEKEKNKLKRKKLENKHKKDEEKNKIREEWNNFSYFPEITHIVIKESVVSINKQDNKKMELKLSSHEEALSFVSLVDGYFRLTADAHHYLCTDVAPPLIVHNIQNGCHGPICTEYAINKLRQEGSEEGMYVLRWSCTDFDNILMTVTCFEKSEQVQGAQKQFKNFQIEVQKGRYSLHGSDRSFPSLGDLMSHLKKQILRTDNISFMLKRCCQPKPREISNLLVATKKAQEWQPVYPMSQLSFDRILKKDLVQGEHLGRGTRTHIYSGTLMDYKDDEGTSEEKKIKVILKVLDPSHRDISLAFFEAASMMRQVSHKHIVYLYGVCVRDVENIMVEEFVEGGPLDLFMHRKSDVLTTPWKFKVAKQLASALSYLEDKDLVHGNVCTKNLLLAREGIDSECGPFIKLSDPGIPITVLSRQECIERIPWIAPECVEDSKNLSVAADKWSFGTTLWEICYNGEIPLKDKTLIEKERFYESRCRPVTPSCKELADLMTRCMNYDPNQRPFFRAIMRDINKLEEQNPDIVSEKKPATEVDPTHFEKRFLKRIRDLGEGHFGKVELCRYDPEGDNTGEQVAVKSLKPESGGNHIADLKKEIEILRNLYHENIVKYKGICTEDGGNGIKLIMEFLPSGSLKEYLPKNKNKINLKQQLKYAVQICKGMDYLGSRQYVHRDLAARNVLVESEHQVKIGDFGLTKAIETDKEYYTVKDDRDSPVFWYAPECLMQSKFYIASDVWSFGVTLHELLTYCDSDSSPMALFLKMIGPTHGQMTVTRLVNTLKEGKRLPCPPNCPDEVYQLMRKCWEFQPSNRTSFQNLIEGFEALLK
JAK2/JAK1, sequence (P23458 whole entry): as above
JAK2/JAK1, sequence (O60674 whole entry): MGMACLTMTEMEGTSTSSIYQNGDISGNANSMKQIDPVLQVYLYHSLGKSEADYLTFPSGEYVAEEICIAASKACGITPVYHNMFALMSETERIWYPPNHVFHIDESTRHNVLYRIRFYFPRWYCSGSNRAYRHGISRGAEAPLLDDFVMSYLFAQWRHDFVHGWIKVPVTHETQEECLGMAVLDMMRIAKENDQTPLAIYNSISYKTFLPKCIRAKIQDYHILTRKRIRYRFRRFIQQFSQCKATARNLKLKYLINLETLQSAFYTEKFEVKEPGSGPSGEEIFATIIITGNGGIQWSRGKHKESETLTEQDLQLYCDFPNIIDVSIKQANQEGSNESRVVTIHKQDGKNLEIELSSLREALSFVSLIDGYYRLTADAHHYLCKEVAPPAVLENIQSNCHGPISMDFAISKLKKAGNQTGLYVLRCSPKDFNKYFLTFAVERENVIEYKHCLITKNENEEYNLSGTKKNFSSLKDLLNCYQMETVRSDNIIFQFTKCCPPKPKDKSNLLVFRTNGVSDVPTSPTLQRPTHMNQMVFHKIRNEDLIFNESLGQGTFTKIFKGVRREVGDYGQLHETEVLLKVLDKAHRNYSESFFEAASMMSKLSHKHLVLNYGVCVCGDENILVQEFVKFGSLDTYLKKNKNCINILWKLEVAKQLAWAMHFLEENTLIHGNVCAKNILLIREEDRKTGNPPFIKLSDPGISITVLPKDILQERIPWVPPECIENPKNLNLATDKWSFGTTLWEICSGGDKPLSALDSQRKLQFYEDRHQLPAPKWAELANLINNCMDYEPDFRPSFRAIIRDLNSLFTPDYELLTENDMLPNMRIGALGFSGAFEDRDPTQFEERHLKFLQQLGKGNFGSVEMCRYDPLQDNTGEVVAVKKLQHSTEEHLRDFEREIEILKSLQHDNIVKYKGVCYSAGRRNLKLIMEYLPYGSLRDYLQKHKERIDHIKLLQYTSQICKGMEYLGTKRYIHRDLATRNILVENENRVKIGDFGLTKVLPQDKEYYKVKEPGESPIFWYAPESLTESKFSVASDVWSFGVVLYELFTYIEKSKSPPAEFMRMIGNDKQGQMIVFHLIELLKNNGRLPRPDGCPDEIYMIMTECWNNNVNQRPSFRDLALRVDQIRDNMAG
Tyrosine-protein kinase JAK1, sequence (P23458 whole entry, the tested form may be a part): as the sequence (P23458 whole entry) above
Tyrosine-protein kinase JAK2, sequence (O60674 whole entry, the tested form may be a part): as the sequence (O60674 whole entry) above

On to `COC[C@@H](C)OC(=O)Cc1ccc(Nc2cc(Nc3ccccc3OC)c(C(N)=O)cn2)nc1`, for which, in [1], the solubility (thermodynamic) is above 18000 µg/mL. Further, the concentration for half-maximal inhibition (IC50) in data set [2] was below 100 nM; in data set [6], 14800 nM; in data set [9], 5 nM; in data set [10] it was 45 nM; in [15], 131 nM; in data set [16] it was 5 nM. In addition, the concentration at 40 h, 3 % in data set [3] came out at 59 µM. The Stability result in data set [4] was “Stable”. Besides, the half-life at 1 µM in data set [5] was determined as 6 min. In addition, the half-life in data set [7] was determined as 42 min. Moreover, in data set [8], the Papp turned out to be 18 ×10⁻⁶ cm/s. Further, the degraded at 4 h in [11] turned out to be 0.1%. Besides, the Drug uptake in [12] amounted to 0.223 µM. Further, the Therm_solubility in data set [13] amounted to 0.007 µg/mL. In addition, the t1/2 in [14] was below 20 min. Further, the degraded at 168 h in data set [17] came to 0.4%. Also, the logD in data set [18] came to 3.3.

One may read the solubility (thermodynamic) as solubility found after equilibrating the solid with the medium. As a reminder, the IC50 is the concentration at which inhibition is half-maximal. Broadly, the half-life is the time needed for the level to fall by half in the phase considered. A word on the logD: it is lipophilicity at a set pH, counting ionised and neutral species.

For the origin of these results see ChEMBL document CHEMBL5370660, “Design of a Supersoft Topical JAK Inhibitor, Which Is Effective in Human Skin but Rapidly Deactivated in Blood” (J Med Chem, 2023).
